Results taken from patent US20220288404A1, “METHODS FOR APPLYING TUMOR TREATING FIELDS IN COMBINATION WITH CANCER TREATING THERAPEUTICS” (THE BOARD OF REGENTS OF THE UNIVERSITY OF TEXAS SYSTEM, priority 2021, published 2022).

Legend:
Type in all cases: cell-based
[1] = test system: H1299 cells; experiment: Clonogenic cell survival assay, H1299 cells; conditions: CI>1 synergistic
Procedure: (§1) Using certain embodiments disclosed herein, TTFields in combination with various inhibitors and/or radiation treatment (IR) were applied to NSCLC cells or pancreatic cancer cells. For example, a predetermined inhibitor at a predetermined concentration was delivered to NSCLC cells or pancreatic cancer cells, and the cells were immediately exposed to TTFields (e.g., 100-250 kHz and 1-20 V/cm v/cm) for about 24, […], or 72 hours. The predetermined concentration was a cell line specific concentration for optimal target cell killing. Then, the cells were irradiated (at a dose of 2Gy) for less than a minute (e.g., 3.25 Gy/min) and immediately plated for survival.
(§2) FIGS. 4 and 5 depict example effects of TTFields, AZD6738, radiation, and a combination thereof on non-small cell lung cancer cells (NSCLC) and pancreatic cancer cell, respectively. In particular, FIGS. 4 and 5 show TTFields exposure synergistically increases the effects of ATR inhibitor AZD6738 on NSLCL cells (FIG. 4) survival and pancreatic cancer cell (FIG. 5) survival. TTFields were used together with ATR inhibitor AZD6738 and radiation (IR). A synergistic effect was observed when AZD6738 and IR were combined with TTFields using the highest single agent (HSA) approach. The following formulas were used for calculating CI: SF=Survival Fraction; CI (TTFields)+(2Gy)=(SF2Gy×SFTTFields)/SF2Gy+TTFields; CI(TTFields)+(AZD)=(SFAZD×SFTTFields)/SFAZD+TTFields; CI (2Gy)+(AZD)=(SF2Gy×SFAZD)/SF2Gy+AZD; and CI (TTFields)+(2Gy)+(AZD)=(SF2Gy×SFAZD×SFTTFields)/SFTTFields+2Gy+AZD.
(§3) The following formulas are used for calculating the combination Index: SF=Survival Fraction; CI (TTFields)+(2Gy)=(SF2Gy×SFTTFields)/SF2Gy+TTFields; CI(TTFields)+(Irino)=(SFIrino×SFTTFields)/SFIrino+TTFields; CI (2Gy)+(Irino)=(S2Gy×SFIrino)SF2Gy+Irino; and CI (TTFields)+(2Gy)+(Irino)=(SF2Gy×SFIrino×SFTTFields)/SFTTFields+2Gy+Irino.

[2] = test system: NSCLC; experiment: Cell survival of NSCLC cells with CP/ETP with/without TTFields (FIG. 6); conditions: HSA approach
Procedure: as §1
FIG. 6 depicts example effects of TTFields, Cisplatin, Etoposide, and a combination thereof on NSCLC. […] CP and ETP were tested alone or in combination and with/without TTFields.

[3] = test system: H157 cells; experiment: Clonogenic cell survival assay, H157 cells; conditions: 48 h, CI>1 synergistic
[4] = test system: H157 cells; experiment: Clonogenic cell survival assay, H157 cells; conditions: CI>1 synergistic
Procedure: as §1, §2, §3

COc1cc([C@@H]2c3cc4c(cc3[C@@H](O[C@@H]3O[C@@H]5CO[C@@H](C)O[C@H]5[C@H](O)[C@H]3O)[C@H]3COC(=O)[C@H]23)OCO4)cc(OC)c1O [ETOP, Etoposide]
CI TTFields + ETOP ([1]; 24 h): 1.387
CI TTFields + ETOP ([1]; 48 h): 1.174
CI TTFields + ETOP ([1]; 72 h): 1.140
cell killing capacity in combination with TTFields [2]: synergistically enhanced
CI TTFields + ETOP [3]: 0.995
CI TTFields + ETOP ([4]; 24 h): 0.842
CI TTFields + ETOP ([4]; 72 h): 1.021
